Assay results taken from patent US11254663B2 (BRISTOL-MYERS SQUIBB COMPANY, priority 2019, dated 2022).

Target: FXR (Homo sapiens (Human), UniProt Q96RI1)
Test: FXR EC50 (FXR agonist potency reported with each Example)
Type: cell-based

Sequence of FXR (Q96RI1 262-486): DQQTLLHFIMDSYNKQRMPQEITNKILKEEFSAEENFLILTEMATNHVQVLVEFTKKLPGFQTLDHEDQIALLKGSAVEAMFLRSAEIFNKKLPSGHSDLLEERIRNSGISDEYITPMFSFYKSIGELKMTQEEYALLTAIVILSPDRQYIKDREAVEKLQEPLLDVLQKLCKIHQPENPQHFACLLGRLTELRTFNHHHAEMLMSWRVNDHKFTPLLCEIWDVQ

Row | EC50 [nM] | SMILES
1 | 346 | CCc1noc(-c2cccc(N(CC34CCC(c5nc(C)no5)(CC3)CC4)C(=O)C34CC(F)(C3)C4)c2)n1 [Example 3, N-(3-(3-ethyl-1,2,4-oxadiazol-5-yl)phenyl)-3-fluoro-N-((4-(3-methyl-1,2,4-oxadiazol-5-yl)bicyclo[2.2.2]octan-1-yl)methyl)bicyclo[1.1.1]pentane-1-carboxamide]
2 | 166 | COCc1nc(-c2cccc(N(CC34CCC(c5nc(C6CC6)no5)(CC3)CC4)C(=O)C34CC(F)(C3)C4)c2)cs1 [Example 72, N-((4-(3-cyclopropyl-1,2,4-oxadiazol-5-yl)bicyclo[2.2.2]octan-1-yl)methyl)-3-fluoro-N-(3-(2-(methoxymethyl)thiazol-4-yl)phenyl)bicyclo[1.1.1]pentane-1-carboxamide]
3 | 824 | CC1(C(=O)N(CC23CCC(c4nc(C(C)(C)C)no4)(CC2)CC3)c2cccc(-c3nc(C4CC4)no3)c2)COC1 [Example 191, N-((4-(3-(tert-butyl)-1,2,4-oxadiazol-5-yl)bicyclo[2.2.2]octan-1-yl)methyl)-N-(3-(3-cyclopropyl-1,2,4-oxadiazol-5-yl)phenyl)-3-methyloxetane-3-carboxamide]
4 | 1830 | Cc1noc(-c2cccc(N(CC34CCC(c5ccc(C6CC6)cc5)(CC3)CC4)C(=O)C(C)C)c2)n1 [Example 1, N-((4-(4-cyclopropylphenyl)bicyclo[2.2.2]octan-1-yl)methyl)-N-(3-(3-methyl-1,2,4-oxadiazol-5-yl)phenyl)isobutyramide]
5 | 269 | CC(N(C(=O)C12CC(F)(C1)C2)c1cccc(-c2cnc(C3CC3)o2)c1)C12CCC(c3nc(C4CC4)no3)(CC1)CC2 (single isomer, unassigned) [Example 215, N-(1-(4-(3-cyclopropyl-1,2,4-oxadiazol-5-yl)bicyclo[2.2.2]octan-1-yl)ethyl)-N-(3-(2-cyclopropyloxazol-5-yl)phenyl)-3-fluorobicyclo[1.1.1]pentane-1-carboxamide]
6 | 437 | Cc1cnc(C23CCC(CN(c4cccc(-c5nc(C(F)F)co5)c4)C(=O)[C@H]4C[C@](O)(C(F)(F)F)C4)(CC2)CC3)o1 [Example 46, (cis)-N-(3-(4-(difluoromethyl)oxazol-2-yl)phenyl)-3-hydroxy-N-((4-(5-methyloxazol-2-yl)bicyclo[2.2.2]octan-1-yl)methyl)-3-(trifluoromethyl)cyclobutane-1-carboxamide]
7 | 205 | O=C(N(CC12CCC(c3nc(C4CC4)no3)(CC1)OC2)c1cccc(-c2nc(C3CC3)no2)c1)C12CC(F)(C1)C2 [Example 196, N-((1-(3-cyclopropyl-1,2,4-oxadiazol-5-yl)-2-oxabicyclo[2.2.2]octan-4-yl)methyl)-N-(3-(3-cyclopropyl-1,2,4-oxadiazol-5-yl)phenyl)-3-fluorobicyclo[1.1.1]pentane-1-carboxamide]
8 | 87 | CCOc1cc(-c2cccc(N(CC34CCC(c5nc(C6CC6)no5)(CC3)CC4)C(=O)C34CC(F)(C3)C4)c2)no1 [Example 25, N-((4-(3-cyclopropyl-1,2,4-oxadiazol-5-yl)bicyclo[2.2.2]octan-1-yl)methyl)-N-(3-(5-ethoxyisoxazol-3-yl)phenyl)-3-fluorobicyclo[1.1.1]pentane-1-carboxamide]
9 | 371 | O=C(N(CC12CCC(c3nc(C4CC4)no3)(CC1)OC2)c1cccc(-c2noc(C(F)F)n2)c1)C12CC(F)(C1)C2 [Example 204, N-((1-(3-cyclopropyl-1,2,4-oxadiazol-5-yl)-2-oxabicyclo[2.2.2]octan-4-yl)methyl)-N-(3-(5-(difluoromethyl)-1,2,4-oxadiazol-3-yl)phenyl)-3-fluorobicyclo[1.1.1]pentane-1-carboxamide]
10 | 1040 | O=C(N(CC12CCC(c3nc(C4CC4)no3)(CC1)CC2)c1cccc(-c2noc(C34CC(F)(C3)C4)n2)c1)C12CC(F)(C1)C2 [Example 102, N-((4-(3-cyclopropyl-1,2,4-oxadiazol-5-yl)bicyclo[2.2.2]octan-1-yl)methyl)-3-fluoro-N-(3-(5-(3-fluorobicyclo[1.1.1]pentan-1-yl)-1,2,4-oxadiazol-3-yl)phenyl)bicyclo[1.1.1]pentane-1-carboxamide]
11 | 139 | CC1(c2nc(-c3cccc(N(CC45CCC(c6nc(C(F)F)no6)(CC4)CC5)C(=O)C45CC(F)(C4)C5)c3)no2)COC1 [Example 173, N-((4-(3-(difluoromethyl)-1,2,4-oxadiazol-5-yl)bicyclo[2.2.2]octan-1-yl)methyl)-3-fluoro-N-(3-(5-(3-methyloxetan-3-yl)-1,2,4-oxadiazol-3-yl)phenyl)bicyclo[1.1.1]pentane-1-carboxamide]
12 | 1370 | O=C(C1CC(F)(F)C1)N(CC12CCC(c3cc(C(F)(F)F)ccn3)(CC1)CC2)c1cccc(-c2nc(C3CC3)no2)c1 [Example 49, N-(3-(3-cyclopropyl-1,2,4-oxadiazol-5-yl)phenyl)-3,3-difluoro-N-((4-(4-(trifluoromethyl)pyridin-2-yl)bicyclo[2.2.2]octan-1-yl)methyl)cyclobutane-1-carboxamide]
13 | 81 | CCOc1nnc(-c2cccc(N(CC34CCC(c5nc(C6CC6)no5)(CC3)CC4)C(=O)C34CC(F)(C3)C4)c2)o1 [Example 53, N-((4-(3-cyclopropyl-1,2,4-oxadiazol-5-yl)bicyclo[2.2.2]octan-1-yl)methyl)-N-(3-(5-ethoxy-1,3,4-oxadiazol-2-yl)phenyl)-3-fluorobicyclo[1.1.1]pentane-1-carboxamide]
14 | 154 | O=C(N(CC12CCC(c3nc(C(F)F)no3)(CC1)CC2)c1cccc(-c2noc(C3CC3)n2)c1)C12CC(F)(C1)C2 [Example 172, N-(3-(5-cyclopropyl-1,2,4-oxadiazol-3-yl)phenyl)-N-((4-(3-(difluoromethyl)-1,2,4-oxadiazol-5-yl)bicyclo[2.2.2]octan-1-yl)methyl)-3-fluorobicyclo[1.1.1]pentane-1-carboxamide]

Second part, the compound before the results:

Row | SMILES | EC50 [nM]
15 | O=C(N(CC12CCC(c3nc(C4CC4)no3)(CC1)CC2)c1cccc(-c2cnn(-c3cccnc3)c2)c1)C12CC(F)(C1)C2 [Example 152, N-((4-(3-cyclopropyl-1,2,4-oxadiazol-5-yl)bicyclo[2.2.2]octan-1-yl)methyl)-3-fluoro-N-(3-(1-(pyridin-3-yl)-1H-pyrazol-4-yl)phenyl)bicyclo[1.1.1]pentane-1-carboxamide] | 162
16 | O=C(C1CC(F)(F)C1)N(CC12CCC(c3nnc(C4CC4)o3)(CC1)CC2)c1cccc(-c2nc(C3CC3)no2)c1 [Example 138, N-(3-(3-cyclopropyl-1,2,4-oxadiazol-5-yl)phenyl)-N-((4-(5-cyclopropyl-1,3,4-oxadiazol-2-yl)bicyclo[2.2.2]octan-1-yl)methyl)-3,3-difluorocyclobutane-1-carboxamide] | 158
17 | CC1(c2nc(-c3cccc(N(CC45CCC(c6noc(C7(C)COC7)n6)(CC4)CC5)C(=O)C45CC(F)(C4)C5)c3)no2)CC1 [Example 180, 3-fluoro-N-(3-(5-(1-methylcyclopropyl)-1,2,4-oxadiazol-3-yl)phenyl)-N-((4-(5-(3-methyloxetan-3-yl)-1,2,4-oxadiazol-3-yl)bicyclo[2.2.2]octan-1-yl)methyl) bicyclo[1.1.1]pentane-1-carboxamide] | 83
18 | COc1cc(-c2cccc(N(CC34CCC(c5ccc(C(C)(C)C#N)cc5)(CC3)OC4)C(=O)C3CCCC3)c2)ccn1 [Example 224, N-((1-(4-(2-cyanopropan-2-yl)phenyl)-2-oxabicyclo[2.2.2]octan-4-yl)methyl)-N-(3-(2-methoxypyridin-4-yl)phenyl)cyclopentanecarboxamide] | 894
19 | O=C(C1CC(C(F)F)C1)N(CC12CCC(c3nc(C4CC4)no3)(CC1)OC2)c1cccc(-c2cc(C3CC3)on2)c1 (stereo not drawn) [Example 201, N-((1-(3-cyclopropyl-1,2,4-oxadiazol-5-yl)-2-oxabicyclo[2.2.2]octan-4-yl)methyl)-N-(3-(5-cyclopropylisoxazol-3-yl)phenyl)-3-(difluoromethyl)cyclobutane-1-carboxamide] | 384
20 | O=C(C1CC(F)(F)C1)N(CC12CCC(c3nnc(C4CC4)o3)(CC1)CC2)c1cccc(-c2nnc(C3CC3)o2)c1 [Example 135, N-((4-(5-cyclopropyl-1,3,4-oxadiazol-2-yl)bicyclo[2.2.2]octan-1-yl)methyl)-N-(3-(5-cyclopropyl-1,3,4-oxadiazol-2-yl)phenyl)-3,3-difluorocyclobutane-1-carboxamide] | 1110
21 | CC(C)(C)c1nc(C23CCC(CN(C(=O)C45CC(F)(C4)C5)c4cccc(-c5nnc(C6CC6)o5)c4)(CC2)CC3)no1 [Example 157, N-((4-(5-(tert-butyl)-1,2,4-oxadiazol-3-yl)bicyclo[2.2.2]octan-1-yl)methyl)-N-(3-(5-cyclopropyl-1,3,4-oxadiazol-2-yl)phenyl)-3-fluorobicyclo[1.1.1]pentane-1-carboxamide] | 43
22 | CC(F)(F)c1nc(C23CCC(CN(C(=O)C45CC(F)(C4)C5)c4cccc(-c5nc(C6CC6)no5)c4)(CC2)CC3)no1 [Example 121, N-(3-(3-cyclopropyl-1,2,4-oxadiazol-5-yl)phenyl)-N-((4-(5-(1,1-difluoroethyl)-1,2,4-oxadiazol-3-yl)bicyclo[2.2.2]octan-1-yl)methyl)-3-fluorobicyclo[1.1.1]pentane-1-carboxamide] | 22
23 | Cn1nc(C23CCC(CN(C(=O)C45CC(F)(C4)C5)c4cccc(-c5noc(C(F)F)n5)c4)(CC2)CC3)cc1C1CC1 [Example 168, N-((4-(5-cyclopropyl-1-methyl-1H-pyrazol-3-yl)bicyclo[2.2.2]octan-1-yl)methyl)-N-(3-(5-(difluoromethyl)-1,2,4-oxadiazol-3-yl)phenyl)-3-fluorobicyclo[1.1.1]pentane-1-carboxamide] | 111
24 | O=C([C@H]1C[C@](O)(C(F)(F)F)C1)N(CC12CCC(c3nc(C4CC4)no3)(CC1)CC2)c1cccc(-c2nc(C3CC3)no2)c1 [Example 9, (1s, 3s)-N-((4-(3-cyclopropyl-1,2,4-oxadiazol-5-yl)bicyclo[2.2.2]octan-1-yl)methyl)-N-(3-(3-cyclopropyl-1,2,4-oxadiazol-5-yl)phenyl)-3-hydroxy-3-(trifluoromethyl)cyclobutane-1-carboxamide] | 153
